These results are taken from ChEMBL document CHEMBL6134767, “Advances in antibacterial agents for Mycobacterium fortuitum” (2025).

≈ marks a conversion by molar mass, not a printed value.

Holding throughout (format): functional
The subject of test [1] is Mycolicibacterium fortuitum. As to the kind of experiment: Antimycobacterial activity against Mycobacterium fortuitum ATCC 6841 assessed as reduction in microbial growth.
Test [2] has as its system Mycolicibacterium fortuitum. Briefly: Antibacterial activity against Mycobacterium fortuitum ATCC 6841 assessed as reduction in bacterial growth by micro-dilution method. (In broth dilution the organism is exposed to a series of concentrations in liquid medium.)
The subject of test [3] is Mycolicibacterium fortuitum. As to the kind of experiment: Antibacterial activity against Mycobacterium fortuitum assessed as reduction in bacterial growth.
The test system of test [4] is Mycolicibacterium fortuitum. Briefly: Antimycobacterial activity against Mycobacterium fortuitum PCM 672 assessed as reduction in microbial growth incubated for 72 hrs by resazurin dye based broth microdilution method.
In test [5] the test system is Mycolicibacterium fortuitum. Briefly: Antibacterial activity against Mycobacterium fortuitum ATCC 6841 assessed as bacterial growth inhibition incubated for 72 hrs by CLSI protocol based micro-dilution method.
Test [6] relates to Mycolicibacterium fortuitum. Briefly: Antibacterial activity against Mycobacterium fortuitum ATCC 6841 assessed as reduction in bacterial growth incubated for 72 hrs by Mueller-Hinton broth micro-dilution based assay.
Test [7] concerns Mycolicibacterium fortuitum. Briefly: Antimycobacterial activity against Mycobacterium fortuitum ATCC 19542 assessed as bacterial growth inhibition incubated for 72 hrs by resazurin dye based broth microdilution method.
For test [8], the system named is Mycolicibacterium fortuitum. Briefly: Antibacterial activity against Mycobacterium fortuitum ATCC 6841 assessed as bacterial growth inhibition incubated for 4 days by CLSI protocol based broth micro-dilution method. The conditions noted are these: ATCC 6841, 96 h, time 4 day.
Test [9] relates to Mycolicibacterium fortuitum. Briefly: Antibacterial activity against Mycobacterium fortuitum ATCC 49404 assessed as bacterial growth inhibition incubated for 72 hrs by CLSI protocol based micro-dilution method.

For the compound `O=c1cc(-c2ccc(O)cc2)oc2c([C@@H]3O[C@H](CO)[C@@H](O)[C@H](O)[C@H]3O)c(O)cc(O)c12`, the MIC (in general, the least concentration at which growth counts as inhibited) in [1] is 69.4 µM.
As for `C=C1[C@@H](C)CC[C@@]2(C)[C@H]1CC=C(C=O)[C@]2(O)C=O`, the MIC in test [2] turned out to be 64.4 µM (≈ 16 µg/mL).
Consider `CC(C)/C(=C/CN(C)C)CC[C@@H](C)[C@H]1CC[C@H]2C3=CC[C@H]4C[C@@H](N(C)C)CC[C@]4(C)[C@H]3CC[C@]12C`, for which, in [3], the minimum inhibitory concentration (MIC) stood at 67.2 µM (≈ 32.5 µg/mL).
Take `Cc1noc(N)c1C(=O)N/N=C/c1ccc(C(F)(F)F)cc1`: in test [4], the MIC was 0.21 µM.
Consider `Cc1cc(NS(=O)(=O)c2ccc(N)cc2)no1` [SULFAMETHOXAZOLE], for which the minimum inhibitory concentration (MIC) in test [5] is 126 µM (≈ 32 µg/mL).
Consider `CCCCCCCCCCC/C=C\C=C\C(O)CC(=O)O` (configuration not stated), for which the MIC in test [6] came to 0.11 µM (≈ 0.0326 µg/mL).
As for `CC[C@H]1OC(=O)[C@H](C)[C@@H](O[C@H]2C[C@@](C)(OC)[C@@H](O)[C@H](C)O2)[C@H](C)[C@@H](O[C@@H]2O[C@H](C)C[C@H](N(C)C)[C@H]2O)[C@](C)(OC)C[C@@H](C)C(=O)[C@H](C)[C@@H](O)[C@]1(C)O` [CLARITHROMYCIN], in [5], the minimal inhibitory concentration (MIC) worked out at 1.34 µM (≈ 1 µg/mL).
With `C[C@]12CC[C@@H]3c4ccc(OCCCCCCC[n+]5ccccc5)cc4CC[C@H]3[C@@H]1CCC2=O`, the MIC in test [3] was 3.81 µM.
On to `CCCCCCCC/C=C\CCCCCCCC(=O)O` [OLEIC ACID], for which the MIC in [6] is 56.6 µM (≈ 16 µg/mL).
For `C=C1[C@H]2CC[C@@H]3[C@H]2C(C)(C)CCC[C@]13C` [LONGIFORENE], in [2], the MIC was over 0.63 µM.
As to `CC(NC(=O)C1=CC(c2cc(Br)ccc2F)N2N=CNC2=N1)c1ccccc1` (configuration not stated), the MIC in test [7] came to 2.26 µM (≈ 1 µg/mL).
Take `CC(C)=CCC/C(C)=C/CNCCNC1C2CC3CC(C2)CC1C3` (configuration not stated) [SQ109]: the MIC in test [3] amounted to 3.02 µM (≈ 0.998 µg/mL).
With `CC(C)/N=c1\cc2n(-c3ccc(Cl)cc3)c3ccccc3nc-2cc1Nc1ccc(Cl)cc1` [CLOFAZIMINE], in [5], the minimum inhibitory concentration (MIC) was found to be 4.22 µM (≈ 2 µg/mL).
In the case of `C=C[C@@H](O)C#CC#C[C@@H](O)/C=C\CCCCCCC` [FALCARINDIOL], the MIC in test [6] was determined as 30.4 µM (≈ 7.92 µg/mL).
Consider `C=C[C@@](C)(O)CC/C=C(/C)CCC=C(C)C` [NEROLIDIOL], for which the minimal inhibitory concentration (MIC) in test [2] turned out to be 44.5 µM (≈ 9.9 µg/mL).
`CC1(C)CCC(Cc2cc(O)c(-c3ccccc3)c(=O)[nH]2)CC1`: the minimum inhibitory concentration (MIC) in test [8] worked out at 0.13 µM (≈ 0.0405 µg/mL).
With `C=C1C[C@@]23CC[C@H]4[C@@](C)(CCC[C@@]4(C)C=O)[C@@H]2CC[C@@H]1C3`, the MIC in test [2] worked out at 51.6 µM (≈ 14.8 µg/mL).
Consider `C#CCNC(=O)C1=CC(c2cc(Br)ccc2F)N2N=CNC2=N1` (configuration not stated), for which the minimal inhibitory concentration (MIC) in [7] was found to be 2.65 µM (≈ 0.997 µg/mL).
Take `Cc1noc(N)c1C(=O)N/N=C/c1ccc([N+](=O)[O-])cc1`: the minimum inhibitory concentration (MIC) in test [4] came to 51.1 µM.
Consider `CCCCC/C=C\C/C=C\CCCCCCCC(=O)O` [LINOLEIC ACID], for which, in test [6], the MIC was 14.3 µM (≈ 4 µg/mL).
Turning to `Cc1noc(N)c1C(=O)N/N=C/c1ccc(Cl)cc1Cl`, in test [4], the minimum inhibitory concentration (MIC) amounted to 55.3 µM.
On the same count and under the same terms, then `COc1ccc(/C=N/NC(=O)c2c(C)noc2N)cc1`, with 0.24 µM.
Consider `Cc1noc(N)c1C(=O)N/N=C/c1ccncc1`, for which the MIC in test [4] is 0.14 µM.
On to `O=c1cc(-c2ccc(O)c(O)c2)oc2cc(O)cc(O)c12` [LUTEOLIN], for which the MIC in test [1] amounted to 0.12 µM.
`CC(C)c1c(O)ccc2c1CC[C@H]1C(C)(C)CCC[C@]21C` [TOTAROL]: in test [2], the minimal inhibitory concentration (MIC) was determined as 14 µM (≈ 4.01 µg/mL).
`Cc1noc(N)c1C(=O)N/N=C/c1ccc(Cl)c(Cl)c1`: the minimum inhibitory concentration (MIC) in test [4] turned out to be 0.21 µM.
As to `CC(=O)NC[C@H]1CN(c2ccc(N3CCOCC3)c(F)c2)C(=O)O1` [LINEZOLID], in [5], the MIC worked out at 23.7 µM (≈ 8 µg/mL).
For `CCN(C(=O)C1=CC(c2cc(Br)ccc2F)N2N=CNC2=N1)c1ccccc1` (configuration not stated), in test [7], the minimal inhibitory concentration (MIC) came out at 2.26 µM (≈ 1 µg/mL).
As for `Cc1cc(O)c([C@]2(C)CC[C@@H]3C[C@@]32C)cc1Br`, the MIC in test [2] was determined as 42.3 µM (≈ 12.5 µg/mL).
For the compound `C[C@H]1c2cccc(O)c2C(=O)C2=C(O)[C@]3(O)C(=O)C(C(N)=O)=C(O)[C@@H](N(C)C)[C@@H]3[C@@H](O)[C@@H]21` [DOXYCYCLINE ANHYDROUS], in [5], the minimal inhibitory concentration (MIC) was 0.56 µM (≈ 0.249 µg/mL).
`NCC[C@H](O)C(=O)N[C@@H]1C[C@H](N)[C@@H](O[C@H]2O[C@H](CN)[C@@H](O)[C@H](O)[C@H]2O)[C@H](O)[C@H]1O[C@H]1O[C@H](CO)[C@@H](O)[C@H](N)[C@H]1O` [AMIKACIN]: the MIC in test [5] was determined as 3.41 µM (≈ 2 µg/mL); in test [9], 5.33 µM (≈ 3.12 µg/mL).
